Assay results from patent US7923464B2, “Benzimidazole derivatives and their use for modulating the GABAA receptor complex” (Neurosearch A/S, priority 2005, dated 2011).

Target: benzodiazepine modulatory unit (GABAA receptor complex), labelled with 3H-flunitrazepam
Assay: In vitro inhibition of 3H-flunitrazepam (3H-FNM) binding
Design: species or system rat
Details: cerebral cortex membranes from male Wistar rats; 3H-FNM 1 nM; 40 min at 2° C.
Method: In Vitro Inhibition of ^3H-flunitrazepam (^3H-FNM) Binding
The GABA recognition site and the benzodiazepine modulatory unit can selectively be labelled with ^3H-flunitrazepam.
Preparations are performed at 0-4° C. unless otherwise indicated. Cerebral cortex from male Wistar rats (150-200 g) is homogenised for 5-10 sec in 20 ml Tris-HCl (30 mM, pH 7.4) using an Ultra-Turrax homogeniser. The suspension is centrifuged at 27,000×g for 15 min and the pellet is washed three times with buffer (centrifuged at 27,000×g for 10 min). The washed pellet is homogenized in 20 ml of buffer and incubated on a water bath (37° C.) for 30 min to remove endogenous GABA and then centrifuged for 10 min at 27,000×g. The pellet is then homogenized in buffer and centrifuged for 10 min at 27,000×g. The final pellet is resuspended in 30 ml buffer and the preparation is frozen and stored at −20° C.
The membrane preparation is thawed and centrifuged at 2° C. for 10 min at 27,000×g. The pellet is washed twice with 20 ml 50 mM Tris-citrate, pH 7.1 using an Ultra-Turrax homogeniser and centrifuged for 10 min at 27,000×g. The final pellet is resuspended in 50 mM Tris-citrate, pH 7.1 (500 ml buffer per g of original tissue), and then used for binding assays. Aliquots of 0.5 ml tissue are added to 25 μl of test solution and 25 μl of ^3H-FNM (1 nM, final concentration), mixed and incubated for 40 min at 2° C. Non-specific binding is determined using Clonazepam (1 μM, final concentration). After incubation the samples are added 5 ml of ice-cold buffer and poured directly onto Whatman GF/C glass fibre filters under suction and immediately washed with 5 ml ice-cold buffer. The amount of radioactivity on the filters is determined by conventional liquid scintillation counting. Specific binding is total binding minus non-specific binding.
Co is specific binding in control assays, and
Cx is the specific binding in the test assay.
(The calculations assume normal mass-action kinetics).

SMILES	IC50 [nM]
CC(N)c1ccc2c(c1)ncn2-c1cccc(-c2ccccc2)c1 (centres unmarked) [Compound 3a, 1-(1-Biphenyl-3-yl-1H-benzoimidazol-5-yl)-ethylamine]	73
COc1ccccc1-c1cccc(-n2cnc3cc([C@@H](C)NC(C)=O)ccc32)c1 [Compound 12b, N-{(R)-1-[1-(2′-Methoxy-biphenyl-3-yl)-1H-benzoimidazol-5-yl]-ethyl}-acetamide]	60
COc1ccccc1-c1cccc(-n2cnc3cc([C@H](C)NC(C)=O)ccc32)c1 [Compound 12g, N-{(S)-1-[1-(2′-Methoxy-biphenyl-3-yl)-1H-benzoimidazol-5-yl]-ethyl}-acetamide]	2.6
COc1ccccc1-c1cccc(-n2cnc3cc([C@@H](C)N)ccc32)c1 [Compound 12o, (R)-1-[1-(2′-Methoxy-biphenyl-3-yl)-1H-benzoimidazol-5-yl]-ethylamine]	6.7
C[C@@H](N)c1ccc2c(c1)ncn2-c1cccc(-c2ccccc2C#N)c1 [Compound 12r, 3′-[5-((R)-1-Amino-ethyl)-benzoimidazol-1-yl]-biphenyl-2-carbonitrile]	3.7
